{"source": "patent US20200061007A1", "about": "“CANCER STEM CELL PROLIFERATION INHIBITOR” (NATIONAL INSTITUTE OF ADVANCED INDUSTRIAL SCIENCE AND …, priority 2014, published 2020)", "key": {"[1]": {"tested_on": "human prostate cancer cell line LNCaP", "assay": "Tumor volume, LNCaP/nude mice", "type": "in vivo", "procedure": "A tumor piece of a human prostate cancer cell line LNCaP containing cells positive for cancer stem cell markers was subcutaneously transplanted to the dorsal part of each of 6-week-old female BALB/cAJc1-nu nude mice (4 mice/group) using a trocar needle. At the time when the tumor volume reached 100 to 200 mm^3, the administration was started. Am80 was orally administered once a day at a dose of 1 mg/kg for 21 continuous days, and DXL was intravenously administered at a dose of 5 mg/kg from Day 1, 3 times at intervals of 4 days. In the combination group, the agents were administered at the same doses as, and by the same administration methods as, those in the cases of administration of each single agent. Measurement of the tumor diameter was carried out until the next day of the completion of the administration (Day 22). The longitudinal diameter and the transverse diameter of the tumor were measured using a caliper, and the tumor volume (mm^3) was determined according to the following formula: longitudinal diameter×transverse diameter^2/2. In the control group, physiological saline was intraperitoneally administered from Day 1, 3 times at intervals of 4 days."}, "[2]": {"tested_on": "human pancreatic cancer cell line Panc-1 cell clusters", "assay": "Growth of human pancreatic cancer cell spheroids in suspension culture", "type": "cell-based", "procedure": "Culturing of a human pancreatic cancer cell line in DMEM/F12 medium supplemented with B27, 20 ng/mL EGF, 20 ng/mL bFGF, and 4 μg/mL heparin using a low-adhesion dish allows formation of cell clusters, and the cells can be cultured in a suspended state. Under these conditions, the cells can be cultured such that they show increased levels of several cancer stem cell markers as well as markers reported for other cancers. First, the cell clusters containing the cells positive for the cancer stem cell markers were cultured in a medium supplemented with Am80 for 1 week, and the influences of Am80 on the growth of cell clusters and the expression levels of the cancer stem cell markers were analyzed."}, "[3]": {"tested_on": "human breast cancer cell line MCF-7", "assay": "Growth inhibition of MCF-7 in vitro", "type": "cell-based", "conditions": "Homo sapiens, MCF7; MCF-7, 96 hours of exposure, RPMI1640 with 2% FBS", "procedure": "A human breast cancer cell line MCF-7, containing cells positive for cancer stem cell markers, was cultured in RPMI1640 medium supplemented with 2% FBS, and the growth inhibitory action by the combination of Am80 and 5-AZ was studied. The IC50 values of the agents determined by 96 hours of the exposure were 1 μM and 20 μM, respectively. Thus, in order to study the growth inhibitory action, Am80 was used within the concentration range of 0.125 μM to 1 μM with a common ratio of 2, and 5-AZ was used within the concentration range of 2.5 μM to 20 μM with a common ratio of 2. In cases of use of these agents in combination, the growth inhibitory action was studied using these concentrations."}, "[4]": {"tested_on": "human pancreatic cancer cells containing pancreatic cancer stem cells", "assay": "Growth of subcutaneously transplanted pancreatic cancer in nude mice", "type": "in vivo", "conditions": "Am80 3 mg/kg/day for 1 month, vs control", "procedure": "(§1) Pancreatic cancer cells (1×10^6 cells) containing pancreatic cancer stem cells were subcutaneously transplanted to nude mice. Mice in which tumor formation was found 2 weeks later were subjected to administration of Am80 for 1 month at 3 mg/kg/day.\nPancreatic cancer cells (1×10^6 cells) containing pancreatic cancer stem cells were subcutaneously transplanted to nude mice. Mice in which tumor formation was found 2 weeks later were subjected to daily administration of Am80 at 3 mg/kg/day and administration of gemcitabine at 50 mg/kg at intervals of 3 days for 1 month. […] Gem herein represents gemcitabine.\nPancreatic cancer cells (1×10^6 cells) containing pancreatic cancer stem cells were subcutaneously transplanted to nude mice. Mice in which tumor formation was found 2 weeks later were subjected to daily administration of Am80 at 3 mg/kg/day and administration of VPA at 500 mg/kg at intervals of 3 days for 1 month."}, "[5]": {"assay": "Body weight of tumor-bearing nude mice", "type": "in vivo", "conditions": "Am80 3 mg/kg/day for 1 month", "procedure": "as §1"}, "[6]": {"tested_on": "human pancreatic cancer cells subcutaneously transplanted to nude mice", "assay": "Pathologic samples of tumor, morphology of cellular tissue", "type": "in vivo", "conditions": "Am80 3 mg/kg/day for 1 month, vs control", "procedure": "as §1, with “mg/kg/day. Pathologic samples of each tumor were prepared to evaluate morphology of cellular tissue.” for “mg/kg/day.”"}, "[7]": {"tested_on": "Human Pancreatic Cancer Stem Cells Transplanted to Nude Mice", "assay": "Ratio of pancreatic cancer stem cells in removed tumor (anti-CD133 flow cytometry)", "type": "in vivo", "conditions": "Am80 3 mg/kg/day for 1 month, vs control", "procedure": "as §1, with “mg/kg/day. Thereafter, the tumor was removed, and the tumor cells were treated by trypsin, followed by measuring the ratio of pancreatic cancer stem cells by flow cytometry using an anti-CD133 antibody.” for “mg/kg/day.”"}, "[8]": {"tested_on": "Human Pancreatic Cancer Cell Panc-1 Spheroids", "assay": "CD24+/CD44+/ESA+ cells by flow cytometry in Panc-1 spheroids", "type": "cell-based", "excerpt": "Pancreatic cancer cells prepared by performing suspension culture in the presence of Am80 for 1 week was subjected to analysis of expression of cancer stem cell surface markers at the protein level by flow cytometry using fluorescence-labeled primary antibodies."}, "[9]": {"tested_on": "Pdx1, glucagon gene expression in human pancreatic cancer cell spheroids", "assay": "Quantitative RT-PCR of pancreatic tissue differentiation markers", "type": "cell-based", "conditions": "suspension culture with Am80 for 1 week", "procedure": "Subsequently, total RNA was extracted from pancreatic cancer cells prepared by performing suspension culture in the presence of Am80 for 1 week, and quantitative RT-PCR was carried out using primers specific to pancreatic tissue-specific differentiation markers."}, "[10]": {"conditions": "suspension culture with Am80 for 1 week"}}, "data": [{"compound": "CC1(C)CCC(C)(C)c2cc(NC(=O)c3ccc(C(=O)O)cc3)ccc21", "note": "[Am80, tamibarotene]", "values": [{"measurement": "tumor volume Day 1", "setting": "[1]; Am80 1 mg/kg oral daily 21 days, DXL 5 mg/kg i.v. 3 times at intervals of 4 days, Day 1", "result": 121.3, "unit": "mm^3"}, {"measurement": "tumor volume Day 5", "setting": "[1]; Am80 1 mg/kg oral daily, DXL 5 mg/kg i.v., Day 5", "result": 162.1, "unit": "mm^3"}, {"measurement": "tumor volume Day 9", "setting": "[1]; Am80 1 mg/kg oral daily, DXL 5 mg/kg i.v., Day 9", "result": 205.8, "unit": "mm^3"}, {"measurement": "tumor volume Day 13", "setting": "[1]; Am80 1 mg/kg oral daily, DXL 5 mg/kg i.v., Day 13", "result": 282.8, "unit": "mm^3"}, {"measurement": "tumor volume Day 17", "setting": "[1]; Am80 1 mg/kg oral daily, DXL 5 mg/kg i.v., Day 17", "result": 409.9, "unit": "mm^3"}, {"measurement": "tumor volume Day 22", "setting": "[1]; Am80 1 mg/kg oral daily, DXL 5 mg/kg i.v., Day 22", "result": 436.3, "unit": "mm^3"}, {"measurement": "sizes of the cell clusters", "setting": "[2]; cultured for a total of 2 weeks in Am80-containing medium", "result": "further decreased"}, {"measurement": "growth of the cell clusters", "setting": "[2]; [10]", "result": "suppressed dependently on the concentration"}, {"measurement": "number of cells", "setting": "[2]; [10]", "result": "decreased dependently on the concentration"}, {"measurement": "IC50", "setting": "[3]", "result": 1000, "unit": "nM"}, {"measurement": "growth of the pancreatic cancer", "setting": "[4]", "result": "could be suppressed in vivo compared to the control"}, {"measurement": "body weight", "setting": "[5]", "result": "not influenced"}, {"measurement": "morphology of pancreatic cancer tissue", "setting": "[6]", "result": "differentiated morphology"}, {"measurement": "ratio of pancreatic cancer stem cells (CD133) in tumor", "setting": "[7]", "result": "action to suppress pancreatic cancer stem cells in vivo"}, {"measurement": "abundance of cells positive for CD24+/CD44+/ESA+", "setting": "[8]; 10 μM Am80, suspension culture 1 week", "result": "reduced by half"}, {"measurement": "abundance of cells positive for CD24+/CD44+/ESA+", "setting": "[8]; addition of Am80, suspension culture 1 week", "result": "significantly decreased"}, {"measurement": "gene expression of Pdx1, glucagon and the like", "setting": "[9]", "result": "increased gene expression dependently on the Am80 concentration"}]}]}
